Reference: patent publication US11795177B2, “Substituted quinoline analogs as aldehyde dehydrogenase 1A1 (ALDH1A1) inhibitors” (THE UNITED STATES OF AMERICA, AS REPRESENTED BY THE …, priority 2017, dated 2023)
Like-named read-outs stand apart in the source and are kept apart here.

Tests used:
MIA PaCa-2 cells = experiment: MIA PaCa2 cell-based assay (1,536-well high-content imaging ALDEFLUOR assay); design: species or system human; settings: Homo sapiens, 0.5 h, ALDEFLUOR BAAA substrate 500 nM, 30 minutes
How it was run: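 MIA PaCa-2 cells (1,000/well), plated overnight, given BAAA substrate (500 nM) plus Hoechst 33342 (0.5 nM), then compound (16-point, 1.4 nM–47.8 μM final; 0.5% DMSO). After 30 min at 37° C, ALDH activity imaged by high-content microscopy as BAA-retaining (FITC) cells versus Hoechst-stained nuclei.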

ALDH1A1 enzyme = molecular target: T1, ALDH1A1 enzyme (Homo sapiens, UniProt P00352); experiment: ALDH1A1 enzymatic assay (in vitro); assay type: biochemical
T1 sequence (P00352 1-501): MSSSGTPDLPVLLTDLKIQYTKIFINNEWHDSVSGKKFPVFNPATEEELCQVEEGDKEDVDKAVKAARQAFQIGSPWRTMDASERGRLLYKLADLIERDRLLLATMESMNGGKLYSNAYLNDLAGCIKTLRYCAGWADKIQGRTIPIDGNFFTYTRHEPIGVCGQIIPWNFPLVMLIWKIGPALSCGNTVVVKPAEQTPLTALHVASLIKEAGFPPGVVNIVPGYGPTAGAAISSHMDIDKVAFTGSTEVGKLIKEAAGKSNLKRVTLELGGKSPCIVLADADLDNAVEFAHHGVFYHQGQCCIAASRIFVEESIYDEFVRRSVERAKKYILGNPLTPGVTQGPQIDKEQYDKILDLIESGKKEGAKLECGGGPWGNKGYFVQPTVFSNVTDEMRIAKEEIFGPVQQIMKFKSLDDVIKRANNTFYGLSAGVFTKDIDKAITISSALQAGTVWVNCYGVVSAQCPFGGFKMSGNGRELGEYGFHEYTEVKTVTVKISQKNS
How it was run: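 ALDH1A1 (20 nM final) in 100 mM HEPES pH 7.5, 0.01% Tween 20 was preincubated 15 min at RT with compound (968 pM–57.2 μM final), then started with 1 mM NAD+ and 80 μM propionaldehyde. NADH fluorescence (ex 340/em 450 nm) followed kinetically for 10 min; change normalized to no-inhibitor and no-enzyme controls for percent inhibition and curve fitting.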

[1] = ALDH1A1 enzyme 20 nM, NAD+ 1 mM, propionaldehyde 80 μM, read-out: ALDH1A1 IC50

| SMILES | IC50 (MIA PaCa-2 cells) [nM] | IC50 (ALDH1A1 enzyme; [1]) [nM] | IC50 (ALDH1A1 enzyme) [nM] |
| --- | --- | --- | --- |
| COc1ccc2ncc(C(=O)N3CCN(C(=O)C4CC4)CC3)c(N3CCC(C)(C#N)CC3)c2c1 [Example 27, 1-(3-(4-(cyclopropanecarbonyl)piperazine-1-carbonyl)-6-methoxyquinolin-4-yl)-4-methylpiperidine-4-carbonitrile] | 1000 to 10000 | < 500 |  |
| COc1ccc2ncc(C(=O)N3CCN(C(=O)C4CC4)CC3)c(N3CCC(C(F)(F)F)CC3)c2c1 [Example 28, (4-(cyclopropanecarbonyl)piperazin-1-yl)(6-methoxy-4-(4-(trifluoromethyl)piperidin-1-yl)quinolin-3-yl)methanone] | > 10000 | 1000 to 10000 |  |
| COc1ccc2ncc(C(=O)N3CCN(C(=O)C4CC4)CC3)c(N3CCS(=O)(=O)CC3)c2c1 [Example 29, (4-(cyclopropanecarbonyl)piperazin-1-yl)(4-(1,1-dioxidothiomorpholino)-6-methoxyquinolin-3-yl)methanone] | > 10000 | > 10000 |  |
| COc1ccc2ncc(C(=O)N3CCC(F)(F)CC3)c(N3CCC4(CC3)OCCO4)c2c1 [Example 32, (4,4-difluoropiperidin-1-yl)(6-methoxy-4-(1,4-dioxa-8-azaspiro[4.5]decan-8-yl)quinolin-3-yl)methanone] | > 10000 | 500 to 1000 |  |
| COc1ccc2ncc(C(=O)N3C[C@@H](C)O[C@@H](C)C3)c(N3CCC4(CC3)OCCO4)c2c1 [Example 33, ((2S*,6R*)-2,6-dimethylmorpholino)(6-methoxy-4-(1,4-dioxa-8-azaspiro[4.5]decan-8-yl)quinolin-3-yl)methanone] | > 10000 | 1000 to 10000 |  |
| COc1ccc2ncc(C(=O)N3CCS(=O)(=O)CC3)c(N3CCC4(CC3)OCCO4)c2c1 [Example 36, (1,1-dioxidothiomorpholino)(6-methoxy-4-(1,4-dioxa-8-azaspiro[4.5]decan-8-yl)quinolin-3-yl)methanone] | > 10000 | < 500 |  |
| COc1ccc2ncc(C(=O)N3CCC4(CC3)OCCO4)c(N3CCC4(CC3)OCCO4)c2c1 [Example 37, (6-methoxy-4-(1,4-dioxa-8-azaspiro[4.5]decan-8-yl)quinolin-3-yl)(1,4-dioxa-8-azaspiro[4.5]decan-8-yl)methanone] | 500 to 1000 |  | < 500 |
| COc1ccc2ncc(C(=O)N3CCN(C(C)=O)CC3)c(N3CCC4(CC3)OCCO4)c2c1 [Example 38, 1-(4-(6-methoxy-4-(1,4-dioxa-8-azaspiro[4.5]decan-8-yl)quinoline-3-carbonyl)piperazin-1-yl)ethanone] | 1000 to 10000 | < 500 |  |
| COc1ccc2ncc(C(=O)N3CCOCC3)c(N3CCC4(CC3)OCCO4)c2c1 [Example 39, (6-methoxy-4-(1,4-dioxa-8-azaspiro[4.5]decan-8-yl)quinolin-3-yl)(morpholino)methanone] | > 10000 | 500 to 1000 |  |
| CCOC(=O)N1CCN(C(=O)c2cnc3ccc(OC)cc3c2N2CCC3(CC2)OCCO3)CC1 [Example 40, Ethyl 4-(6-methoxy-4-(1,4-dioxa-8-azaspiro[4.5]decan-8-yl)quinoline-3-carbonyl)piperazine-1-carboxylate] | > 10000 | < 500 |  |
| CCNC(=O)N1CCN(C(=O)c2cnc3ccc(OC)cc3c2N2CCC3(CC2)OCCO3)CC1 [Example 43, N-ethyl-4-(6-methoxy-4-(1,4-dioxa-8-azaspiro[4.5]decan-8-yl)quinoline-3-carbonyl)piperazine-1-carboxamide] | 1000 to 10000 | < 500 |  |
| COc1ccc2ncc(C(=O)N3CCN(C(=O)C4CC4)CC3)c(N3CCC(F)(F)CC3)c2c1 [Example 44, (4-(cyclopropanecarbonyl)piperazin-1-yl)(4-(4,4-difluoropiperidin-1-yl)-6-methoxyquinolin-3-yl)methanone] | > 10000 | > 10000 |  |
| COc1ccc2ncc(C(=O)N3CCN(C(=O)C4CC4)CC3)c(N3CCC4(CC3)CC4)c2c1 [Example 46, (4-(cyclopropanecarbonyl)piperazin-1-yl)(6-methoxy-4-(6-azaspiro[2.5]octan-6-yl)quinolin-3-yl)methanone] | 1000 to 10000 | < 500 |  |
| CC(C)C(=O)N1CCN(C(=O)c2cnc3ccc(F)cc3c2N2CCC3(CC2)OCCO3)CC1 [Example 49, 1-(4-(6-fluoro-4-(1,4-dioxa-8-azaspiro[4.5]decan-8-yl)quinoline-3-carbonyl)piperazin-1-yl)-2-methylpropan-1-one] | > 10000 | < 500 |  |
| O=C(c1cnc2ccc(F)cc2c1N1CCC2(CC1)OCCO2)N1CCC(F)(F)CC1 [Example 50, (4,4-difluoropiperidin-1-yl)(6-fluoro-4-(1,4-dioxa-8-azaspiro[4.5]decan-8-yl)quinolin-3-yl)methanone] | > 10000 | < 500 |  |
| CC(=O)N1CCN(C(=O)c2cnc3ccc(F)cc3c2N2CCC3(CC2)OCCO3)CC1 [Example 51, 1-(4-(6-fluoro-4-(1,4-dioxa-8-azaspiro[4.5]decan-8-yl)quinoline-3-carbonyl)piperazin-1-yl)ethanone] | > 10000 | < 500 |  |
| CS(=O)(=O)N1CCN(C(=O)c2cnc3ccc(F)cc3c2N2CCC3(CC2)OCCO3)CC1 [Example 52, (6-fluoro-4-(1,4-dioxa-8-azaspiro[4.5]decan-8-yl)quinolin-3-yl)(4-(methylsulfonyl)piperazin-1-yl)methanone] | 1000 to 10000 | < 500 |  |
| O=C(c1cnc2ccc(F)cc2c1N1CCC2(CC1)OCCO2)N1CCS(=O)(=O)CC1 [Example 53, (1,1-dioxidothiomorpholino)(6-fluoro-4-(1,4-dioxa-8-azaspiro[4.5]decan-8-yl)quinolin-3-yl)methanone] | > 10000 | 500 to 1000 |  |
| CCOC(=O)N1CCN(C(=O)c2cnc3ccc(F)cc3c2N2CCC3(CC2)OCCO3)CC1 [Example 54, Ethyl 4-(6-fluoro-4-(1,4-dioxa-8-azaspiro[4.5]decan-8-yl)quinoline-3-carbonyl)piperazine-1-carboxylate] | > 10000 | < 500 |  |
| C[C@@H]1CN(C(=O)c2cnc3ccc(F)cc3c2N2CCC3(CC2)OCCO3)C[C@H](C)O1 [Example 55, ((2S*,6R*)-2,6-dimethylmorpholino)(6-fluoro-4-(1,4-dioxa-8-azaspiro[4.5]decan-8-yl)quinolin-3-yl)methanone] | > 10000 | 1000 to 10000 |  |
| CCNC(=O)N1CCN(C(=O)c2cnc3ccc(F)cc3c2N2CCC3(CC2)OCCO3)CC1 [Example 56, N-ethyl-4-(6-fluoro-4-(1,4-dioxa-8-azaspiro[4.5]decan-8-yl)quinoline-3-carbonyl)piperazine-1-carboxamide] | > 10000 | < 500 |  |
| O=C(c1cnc2ccc(F)cc2c1N1CCC2(CC1)OCCO2)N1CCOCC1 [Example 58, (6-fluoro-4-(1,4-dioxa-8-azaspiro[4.5]decan-8-yl)quinolin-3-yl)(morpholino)methanone] | > 10000 | 500 to 1000 |  |
| COC1(C)CCN(c2c(C(=O)N3CCN(C(=O)C4CC4)CC3)cnc3ccc(F)cc23)CC1 [Example 61, (4-(cyclopropanecarbonyl)piperazin-1-yl)(6-fluoro-4-(4-methoxy-4-methylpiperidin-1-yl)quinolin-3-yl)methanone] | > 10000 | < 500 |  |
| O=C(c1cnc2ccc(F)cc2c1N1CCC2(CC1)COC2)N1CCN(C(=O)C2CC2)CC1 [Example 68, (4-(cyclopropanecarbonyl)piperazin-1-yl)(6-fluoro-4-(2-oxa-7-azaspiro[3.5]nonan-7-yl)quinolin-3-yl)methanone] | > 10000 | 1000 to 10000 |  |
| O=C(c1cnc2ccc(F)cc2c1N1CCC2(CC1)OCCO2)N1CCCN(C(=O)C2CC2)CC1 [Example 69, (4-(cyclopropanecarbonyl)-1,4-diazepan-1-yl)(6-fluoro-4-(1,4-dioxa-8-azaspiro[4.5]decan-8-yl)quinolin-3-yl)methanone] | > 10000 | < 500 |  |
| CCC(=O)N1CCN(C(=O)c2cnc3ccc(F)cc3c2N2CCC3(CC2)OCCO3)CC1 [Example 70, 1-(4-(6-fluoro-4-(1,4-dioxa-8-azaspiro[4.5]decan-8-yl)quinoline-3-carbonyl)piperazin-1-yl)propan-1-one] | 1000 to 10000 | < 500 |  |
| CC(C)C1CCN(c2c(C(=O)N3CCN(C(=O)C4CC4)CC3)cnc3ccc(F)cc23)CC1 [Example 74, (4-(cyclopropanecarbonyl)piperazin-1-yl)(6-fluoro-4-(4-isopropylpiperidin-1-yl)quinolin-3-yl)methanone] | 1000 to 10000 | < 500 |  |
| CCOC(=O)N1CCN(C(=O)c2cnc3ccc(F)cc3c2N2CCC(C)(C#N)CC2)CC1 [Example 88, Ethyl 4-(4-(4-cyano-4-methylpiperidin-1-yl)-6-fluoroquinoline-3-carbonyl)piperazine-1-carboxylate] | > 10000 | < 500 |  |
